Assay results published in US10428044B2, “3-amino-1,5,6,7-tetrahydro-4H-indol-4-ones” (Bayer Pharma Aktiengesellschaft, priority 2014, dated 2019).

Target: (recombinant) catalytic domain of human Bub1 (amino acids 704-1085) (Homo sapiens (Human), UniProt O43683)
Assay: Bub1 kinase assay (TR-FRET)
Format: biochemical
Conditions: ATP 10 μM final, peptide substrate 1 μM final, 60 min at 22° C., read-out: Biological Assay: Bub1 kinase assay median IC50
How it was run: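 Compounds were serially diluted 1:3.4 from 2 mM DMSO stocks and incubated with the enzyme reaction for 60 min at 22° C. The reaction was stopped with EDTA, and biotinylated peptide phosphorylation was read by TR-FRET using Eu anti-mouse IgG, anti-phosphoserine antibody and streptavidin-XL665. IC50 was fitted by 4-parameter logistic to inhibition normalized to no-inhibitor and no-enzyme controls.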

Sequence of (recombinant) catalytic domain of human Bub1 (amino acids 704-1085) (O43683 704-1085): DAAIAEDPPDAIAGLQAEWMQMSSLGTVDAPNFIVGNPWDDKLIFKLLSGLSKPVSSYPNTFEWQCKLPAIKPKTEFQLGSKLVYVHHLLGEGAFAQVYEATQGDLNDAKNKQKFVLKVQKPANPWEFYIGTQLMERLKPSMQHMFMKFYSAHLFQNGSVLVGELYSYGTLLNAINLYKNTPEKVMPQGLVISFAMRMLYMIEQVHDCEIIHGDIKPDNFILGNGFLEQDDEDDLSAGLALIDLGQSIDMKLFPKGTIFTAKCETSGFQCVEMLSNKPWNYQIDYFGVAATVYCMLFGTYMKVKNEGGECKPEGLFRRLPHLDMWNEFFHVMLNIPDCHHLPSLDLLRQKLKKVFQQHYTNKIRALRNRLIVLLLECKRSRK

| Structure (SMILES) | IC50 [nM] |
| --- | --- |
| CC1(C)CC(=O)c2c([nH]c(-c3ccnc(NCCCCc4ccccc4)c3)c2Nc2ccccc2)C1 [Example 507, 6,6-dimethyl-3-(phenylamino)-2-{2-[(4-phenylbutyl)amino]pyridin-4-yl}-1,5,6,7-tetrahydro-4H-indol-4-one] | 959 |
| CC1(C)CC(=O)c2c([nH]c(-c3ccnc(NCc4cncs4)c3)c2Nc2ccccc2)C1 [Example 508, 6,6-dimethyl-3-(phenylamino)-2-{2-[(1,3-thiazol-5-ylmethyl)amino]pyridin-4-yl}-1,5,6,7-tetrahydro-4H-indol-4-one] | 193 |
| CC1(C)CC(=O)c2c([nH]c(-c3ccnc(NCC4CC4)c3)c2Nc2ccccc2)C1 [Example 509, 2-{2-[(cyclopropylmethyl)amino]pyridin-4-yl}-6,6-dimethyl-3-(phenylamino)-1,5,6,7-tetrahydro-4H-indol-4-one] | 221 |
| CC1(C)CC(=O)c2c([nH]c(-c3ccncc3)c2Nc2ccc(Cc3ccccc3)cc2)C1 [Example 513, 3-[(4-benzylphenyl)amino]-6,6-dimethyl-2-(pyridin-4-yl)-1,5,6,7-tetrahydro-4H-indol-4-one] | > 20000 |
| CC1(C)CC(=O)c2c([nH]c(-c3ccncc3)c2Nc2ccc(Oc3ccccc3)cc2)C1 [Example 514, 6,6-dimethyl-3-[(4-phenoxyphenyl)amino]-2-(pyridin-4-yl)-1,5,6,7-tetrahydro-4H-indol-4-one] | > 20000 |

The next compounds have a lower IC50 than those just listed; values first:

| IC50 [nM] | Structure (SMILES) |
| --- | --- |
| 11.1 | CC1(C)CC(=O)c2c([nH]c(-c3ccnc(NC(=O)c4nccs4)c3)c2Nc2ccccc2)C1 [Example 505, N-{4-[6,6-dimethyl-4-oxo-3-(phenylamino)-4,5,6,7-tetrahydro-1H-indol-2-yl]pyridin-2-yl}-1,3-thiazole-2-carboxamide] |
| 7.77 | Cn1cc(C(=O)Nc2cc(-c3[nH]c4c(c3Nc3ccccc3)C(=O)CC(C)(C)C4)ccn2)cn1 [Example 506, N-{4-[6,6-dimethyl-4-oxo-3-(phenylamino)-4,5,6,7-tetrahydro-1H-indol-2-yl]pyridin-2-yl}-1-methyl-1H-pyrazole-4-carboxamide] |
| 25.3 | CC1(C)CC(=O)c2c([nH]c(-c3ccncc3)c2Nc2cnccc2CO)C1 [Example 510, 3-{[4-(hydroxymethyl)pyridin-3-yl]amino}-6,6-dimethyl-2-(pyridin-4-yl)-1,5,6,7-tetrahydro-4H-indol-4-one] |
| 65.2 | CC1(C)CC(=O)c2c([nH]c(-c3ccncc3)c2Nc2ncccc2CO)C1 [Example 511, 3-{[3-(hydroxymethyl)pyridin-2-yl]amino}-6,6-dimethyl-2-(pyridin-4-yl)-1,5,6,7-tetrahydro-4H-indol-4-one] |
